In US9643967B2, “Pyrrolo[3,2-c]pyridine derivatives as TLR inhibitors” (TAKEDA PHARMACEUTICAL COMPANY LIMITED, priority 2013, dated 2017):
Read-outs that look alike come from different tables or passages of the source.

Target: T1, mTLR7 (Mus musculus, UniProt P58681)
T1 construct: Splenocytes isolated from male C57/BL6 mice; from tissue; host or cells: splenocytes from the spleen of male C57BL/6 mice
T1 sequence (P58681 27-1050): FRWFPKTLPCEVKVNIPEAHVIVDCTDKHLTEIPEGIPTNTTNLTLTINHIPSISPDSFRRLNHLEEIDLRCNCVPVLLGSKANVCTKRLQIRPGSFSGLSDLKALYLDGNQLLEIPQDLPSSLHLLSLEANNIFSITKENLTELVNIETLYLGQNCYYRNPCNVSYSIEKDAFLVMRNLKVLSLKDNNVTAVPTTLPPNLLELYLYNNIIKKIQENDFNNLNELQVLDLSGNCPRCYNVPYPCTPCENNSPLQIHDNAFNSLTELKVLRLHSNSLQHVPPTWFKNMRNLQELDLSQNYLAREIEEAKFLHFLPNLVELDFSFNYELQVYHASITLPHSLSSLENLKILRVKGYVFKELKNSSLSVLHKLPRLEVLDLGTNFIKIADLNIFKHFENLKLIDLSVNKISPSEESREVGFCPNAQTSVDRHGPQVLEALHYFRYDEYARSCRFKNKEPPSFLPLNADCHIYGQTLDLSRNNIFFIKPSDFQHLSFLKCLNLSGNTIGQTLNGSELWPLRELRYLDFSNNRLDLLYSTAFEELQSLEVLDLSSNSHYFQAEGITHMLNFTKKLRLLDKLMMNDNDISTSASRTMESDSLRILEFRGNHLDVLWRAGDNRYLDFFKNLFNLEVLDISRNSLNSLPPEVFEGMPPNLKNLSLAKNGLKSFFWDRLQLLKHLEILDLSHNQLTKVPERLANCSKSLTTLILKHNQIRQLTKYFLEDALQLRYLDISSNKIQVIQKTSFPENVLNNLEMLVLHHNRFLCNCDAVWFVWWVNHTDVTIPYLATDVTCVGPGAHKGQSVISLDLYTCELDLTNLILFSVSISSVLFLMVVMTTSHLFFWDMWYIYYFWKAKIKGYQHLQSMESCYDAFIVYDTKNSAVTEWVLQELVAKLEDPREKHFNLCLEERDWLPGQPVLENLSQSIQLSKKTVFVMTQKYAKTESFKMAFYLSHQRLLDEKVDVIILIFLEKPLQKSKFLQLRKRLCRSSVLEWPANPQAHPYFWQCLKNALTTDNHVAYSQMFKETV
Experiment: mTLR7 antagonism (IL-6 and TNF-α release assay) in mouse splenocytes, R0006/DOTAP stimulated
Format: cell-based
Details: 1 μM, mouse splenocytes
Text: mTLR9 and mTLR7 Antagonism (Cytokine Release Assay) in Mouse Splenocytes
TLR7 ligand R0006 (IDT, 5′-rU*rU*rG*rU*rU*rG*rU*rU*rG*rU*rU*rG*rU*rU*rG*rU*rU*rG*rU*rU-3′ (SEQ ID NO:1)), Liposomal transfection reagent—DOTAP (Roche, Cat. No. 11202375001), TLR9 ligand CpG ODN2006 (Sequence: T*C*G*T*C*G*T*T*T*T*G*T*C*G*T*T*T*T*G*T*C*G*T*T; *=phosphorothioate (SEQ ID NO:2)) DMSO (Sigma, D2650), RPMI Powder (Sigma, R6504), Fetal Bovine Serum (Gibco, 10270), Dulbecco's Phosphate Buffered Saline (Sigma, D1408), 96 well plate (Flat bottom, Costar 3599), ELISA kit for IL-6 (EBioscience, 88-7064-77 and TNFa (EBioscience, 88-7346-88), MACS Buffer (AutoMACS Rinsing Solution (Miltenyl Biotec, 130-091-222)+0.05% BSA), RBC lysis buffer (0.85% NH4Cl), 40 μm cell strainer (BD Falcon, 352340) Method: A. Isolation of Mouse Splenocytes
Mouse spleen was isolated from C57BL6 mouse and stored in 1× chilled PBS buffer until further processed. Spleen was transferred to a sterile petriplate and chopped in to 5-6 pieces in presence of MACS buffer (100 μl) with the help of fresh surgical blade and crushed with flat plunger of a sterile syringe. A uniform suspension was prepared by passing cells through a 40 μm cell strainer. Cells were centrifuged at 450×g for 5 minutes at 4° C., supernatant was discarded and pellet dislodged gently, resuspended in 2 ml of pre-warmed (37° C.) RBC lysis buffer at room temperature with continuous gentle mixing with 1 ml pipette. Lysis buffer was neutralized with 12 ml of chilled MACS buffer and cells were passed through 40 μm cell strainer. Cell suspension was collected in 15 ml MACS buffer and centrifuged at 450×g for 5 minutes at 4° C. Pellet was resuspended in 15 ml MACS buffer and centrifuged at 400×g for 5 minutes. Cells were resuspended in 10 ml of RPMI complete medium and viability was estimated by Trypan blue method.
mTLR7 Antagonism (IL-6 and TNF-α Release Assay):
1 mg/ml stock of R0006 was prepared in sterile, endotoxin-free water. R0006 stock was diluted 10 fold with DOTAP and incubated for 30 minutes to form liposome complex (100 μg/ml of R0006). This complex was further diluted 10 fold with incomplete RPMI media (10 μg/ml of R0006) to achieve the final agonist concentration of 1 μg/ml. DOTAP alone was diluted 10 fold in incomplete RPMI media. NCEs were added in a concentration range of 30 μM to 1 nM in respective wells of assay plate, assay medium containing 0.3% DMSO were added to control wells. 0.2 million splenocytes were added to all the wells and incubated at 37° C. in 5% CO2 incubator for 30 minutes. 1 μg/ml of respective agonist was added to all the wells except those were assigned as negative controls and mixed thoroughly. DOTAP was added to negative control wells and incubated overnight at 37° C./5% CO2. The plate was centrifuged at 450×g for 5 minutes at room temperature and the supernatant was collected. ELISA was performed as per manufacturer's protocol. S/B Ratio, % Activity and % Inhibition was calculated using MS Excel. IC50 and inhibition curve was generated using Graph Pad Prism.

[1] = IL-6 release, read-out: mTLR7 inhibitory activity (% at 1 μM), IL-6
[2] = TNF-α release, read-out: mTLR7 inhibitory activity (% at 1 μM), TNF-α

SMILES | inhibition at 1 µM [1] [%] | inhibition at 1 µM [2] [%]
CC(C)N1CCN(c2ccc(-c3nccc4c3cc(CN3CCOCC3)n4C)cc2)CC1 [Example A8, 4-[[4-[4-(4-isopropylpiperazin-1-yl)phenyl]-1-methyl-pyrrolo[3,2-c]pyridin-2-yl]methyl] morpholine] | 100 | 100
Cc1cc2c(cc(CCN3CCOCC3)n2C)c(-c2ccc(N3CCN(C(C)C)CC3)cc2C(F)(F)F)n1 [Example B17, 4-[2-[4-[4-(4-isopropylpiperazin-1-yl)-2-(trifluoromethyl)phenyl]-1,6-dimethyl-pyrrolo[3,2-c]pyridin-2-yl]ethyl]morpholine] | 93 | 90
CC(C)N1CCC(Oc2ccc(-c3nccc4[nH]c(CN5CCOCC5)cc34)cc2)CC1 [Example A56, 4-[[4-[4-[(1-isopropyl-4-piperidyl)oxy]phenyl]-1H-pyrrolo[3,2-c]pyridin-2-yl]methyl]morpholine] | – | 64
CN1CCN(c2ccc(-c3nccc4[nH]c(CCCN5CCOCC5)cc34)cc2)CC1 [Example C2, 4-[3-[4-[4-(4-methylpiperazin-1-yl)phenyl]-1H-pyrrolo[3,2-c]pyridin-2-yl]propyl]morpholine] | – | 100
COc1cc(N2CCN(C(C)C)CC2)ccc1-c1nc(C)cc2c1cc(CCN1CCOCC1)n2C [Example B20, 4-[2-[4-[4-(4-isopropylpiperazin-1-yl)-2-methoxy-phenyl]-1,6-dimethyl-pyrrolo[3,2-c]pyridin-2-yl]ethyl]morpholine] | 70 | 57
CC(C)N1CCN(c2ccc(-c3nccc4[nH]c(CN5CC(O)C5)cc34)cc2)CC1 [Example A72, 1-[[4-[4-(4-isopropylpiperazin-1-yl)phenyl]-1H-pyrrolo[3,2-c]pyridin-2-yl]methyl]azetidin-3-ol] | 0 | 14
CC(C)N1CCC(c2ccc(-c3nccc4[nH]c(CN5CCOCC5)cc34)cc2)CC1 [Example A70, 4-[[4-[4-(1-isopropyl-4-piperidyl)phenyl]-1H-pyrrolo[3,2-c]pyridin-2-yl]methyl]morpholine] | 100 | 36
CC(C)N1CCC(n2cc(-c3nccc4[nH]c(CN5CCOCC5)cc34)cn2)CC1 [Example A54, 4-[[4-[1-(1-isopropyl-4-piperidyl)pyrazol-4-yl]-1H-pyrrolo[3,2-c]pyridin-2-yl]methyl]morpholine] | – | 0
CC(C)N1CCN(c2ccc(-c3nccc4[nH]c(CN5CCC(O)CC5)cc34)cc2)CC1 [Example A12, 1-[[4-[4-(4-isopropylpiperazin-1-yl)phenyl]-1H-pyrrolo[3,2-c]pyridin-2-yl]methyl] piperidin-4-ol] | 80 | 45
CC(C)N1CCN(c2ccc(-c3nccc4[nH]c(CN5CCOCC5)cc34)cc2)CC1 [Example A1, 4-[[4-[4-(4-isopropylpiperazin-1-yl)phenyl]-1H-pyrrolo[3,2-c]pyridin-2-yl]methyl]morpholine] | 97 | 100
CC(C)N1CCN(c2ccc(-c3nc(C4CC4)cc4[nH]c(CN5CCOCC5)cc34)cc2)CC1 [Example A33, 4-[[6-cyclopropyl-4-[4-(4-isopropylpiperazin-1-yl)phenyl]-1H-pyrrolo[3,2-c]pyridin-2-yl]methyl] morpholine] | – | 83
Cc1nc(-c2ccc(N3CCN(C)CC3)cc2)c2cc(CN3CCOCC3)[nH]c2c1C [Example A37, 4-[[6,7-dimethyl-4-[4-(4-methylpiperazin-1-yl)phenyl]-1H-pyrrolo[3,2-c]pyridin-2-yl]methyl] morpholine] | – | 100
CC(C)N1CCN(C2CCC(c3nccc4[nH]c(CN5CCOCC5)cc34)CC2)CC1 (stereo not drawn) [Example A80, 4-[[4-[4-(4-isopropylpiperazin-1-yl)cyclohexyl]-1H-pyrrolo[3,2-c]pyridin-2-yl]methyl]morpholine] | 18 | 16
